# A melting point compilation (Tetko et al.; mined from patent text by program, amines drawn as free bases though some values may be those of a salt)
row,Compound,melting point
1,CNc1c(F)ccc(-n2cc(C(=O)O)c(=O)c3cc(F)c(NC)c(Cl)c32)c1F,245 to 248 °C
2,CC(C)(C#N)c1ccc(-n2c(-c3cc(-c4cnc5ccccc5c4)ccn3)c[nH]c2=O)cc1,271 °C
3,CC(CC(=O)NC(=O)OC(C)(C)C)Nc1ccc(Cl)cc1 (centres undefined),114 to 115 °C
4,CC(C)(C)OC(=O)NC1COCCCC=CC2CC2(C(=O)NS(=O)(=O)C2CC2)NC(=O)C2CC(OC(=O)c3cccc(Oc4ccccc4)c3)CN2C1=O (centres undefined),123 to 125 °C
5,CCOC(=O)NCCc1ccccc1,47 to 48 °C
6,O=C(NC1N=C(c2ccccc2F)c2ccccc2N(C(=O)c2ccc(Cl)cc2)C1=O)c1ccc(Cl)cc1 (racemic),190 to 191 °C
7,CCCCC1(C#N)C2CC3CC(C2)CC1C3 (centres undefined),48 to 50 °C
8,OCCNc1nc(N2CCNCC2)nc2c1SCCC2,116 to 120 °C
9,O=C(O)c1ccc2c(c1)CN(C(=O)OCc1ccccc1)C2,197 to 199 °C
10,CCOC(=O)c1cc(CC)c2ccc(C(C)C)ccc1-2,48 to 49 °C
11,CCCN(CCc1c[nH]c2ccc(F)cc12)C1COc2ccc3ncccc3c2C1 (centres undefined),67 °C
12,NS(=O)(=O)c1ccc(CCN2C(=O)c3ccccc3C2c2ccccc2)cc1 (centres undefined),218 °C
13,CS(=O)(=O)c1ccc(-c2cc(CBr)nn2-c2ccc(Cl)cc2)cc1,60 to 64 °C
14,CS(=O)(=O)c1ccc(C(Cc2ccc(F)cc2Cl)C(=O)Nc2nc3ccccc3o2)cc1 (centres undefined),127 to 128 °C
15,S=C(Nc1ccc(Cl)cc1)NC1C2CC3C(C2)C31 (centres undefined),164 to 166 °C
16,Cc1cccc(-c2[nH]c(C(C)C)nc2-c2cccc(-c3ccsc3)c2)n1,83 to 85 °C
17,Cc1ccccc1-c1ccc(C(=O)N2Cc3ccc(C(=O)NC(C)c4ccccc4)n3Cc3ccccc32)cc1C (centres undefined),118 to 124 °C
18,COCCCc1cc(N(C)Cc2ccc(-c3ccc(C(F)(F)F)cc3)nc2)ccc1OCC(=O)O,72 to 76 °C
19,CC(=O)Nc1nc2c(s1)C(=O)C(Br)CC2 (centres undefined),180 to 182 °C
20,CC(C)(C)c1cc(Cn2nc(CCCCCCCCc3nn(Cc4cc(C(C)(C)C)c(O)c(C(C)(C)C)c4)c(=O)o3)oc2=O)cc(C(C)(C)C)c1O,142 °C
21,O=C(CCl)[C@H](Cc1ccccc1)N(Cc1ccccc1)Cc1ccccc1,45.8 to 46.8 °C
22,COC(=O)c1ccc(S(=O)(=O)Cc2c(O[C@H](Cn3ccnc3)c3ccccc3)ccc3c2CCCC3=O)cc1,105 °C
23,O=C(O)CCCOc1ccc2cc(-c3ccc4ccc(Cl)cc4n3)oc2c1,200 to 201 °C
24,CCC(C)N1CN(C)C(=O)N(c2nc3c(s2)C(=O)CC(C)(C)C3)C1 (centres undefined),126 to 127 °C
25,C=CCN(C(=O)OCc1ccccc1)c1cc(F)c(-c2ccncc2)c(F)c1,82 to 83 °C

row,Compound,melting point
1,CN(C)C(=O)N(NC(=O)C(F)(F)F)c1ccc(Cl)cc1Cl,137 to 138 °C
2,Cc1cc(C)c2c(-c3ccc(C(C)C)cc3)coc2c1,44 to 45 °C
3,Cc1cc(I)ccc1NC1=CC2=NCN(C)C2=CC1(F)C(=O)NN (centres undefined),232 to 234 °C
4,CCOC(=O)c1nnc2ccc(N3C(=O)C=CC3=O)cc2c1O,257 to 260 °C
5,S=C=Nc1ccc(-c2nc(-c3ccco3)no2)cc1,136 to 137 °C
6,CCOC(=O)c1c(C(F)(F)F)nc(C(F)F)c(C(=O)OC)c1NCC#N,87 to 89 °C
7,CCOC(=O)C1=C(C)NC(C)=C(C(=O)OCC)C1c1c(SC)sc2ccccc12,177 to 179 °C
8,N#C[C@@H](Cc1ccccc1)Oc1c(Br)cc(-c2c3ccccc3c(Br)c3sc4ccccc4c23)cc1Br,160 to 165 °C
9,ClCc1cnn(-c2ccc(Cl)c(Cl)c2)c1,66 to 67 °C
10,C=C(C)C(=O)Nc1ccc(C(=O)O)c(O)c1,220 to 222 °C
11,Nc1sc2c(c1C(=O)c1ccc3c(c1)Cc1ccccc1-3)CCN(Cc1ccccc1)C2,197 to 200 °C
12,CC(=O)Nc1c(C(=O)c2ccccc2)[nH]c2ccc(NS(C)(=O)=O)cc12,260 to 261 °C
13,CCOc1ccc(-c2cn(C)c(SCC)n2)cc1,98.2 °C
14,C=CN(Cc1ccccc1)C(=O)C(F)(F)C(F)(F)C(F)(F)C(F)(F)C(F)(F)C(F)F,53 to 57 °C
15,CC1(C)OC(=O)C(Br)(CCn2cccc2C(=O)c2ccccc2)C(=O)O1,89 to 91 °C
16,CCCCCCCCCCCC(=O)c1cn(CCCC(=O)O)c2ccccc12,88 to 90 °C
17,Cc1ccc(-c2nnn(C(c3ccccc3)(c3ccccc3)c3ccccc3)n2)cc1,172 to 175 °C
18,CN(C)C=C1C(=O)N(c2cccc(O)c2)c2ccccc21,200 to 203 °C
19,CN(C)C1CCCN(C(=O)c2n[nH]c3ccccc23)C1 (centres undefined),141 to 142 °C
20,CC(=NO)C(C)(C)NCCCNC(C)(C)C(COCC(O)Cn1ccnc1[N+](=O)[O-])=NO (centres undefined),72 to 73 °C
21,Cc1ccc(S(=O)(=O)NC(C)(C)C)s1,89 °C
22,CC(C(=O)O)c1ccc(N=c2sccn2C)c(Cl)c1 (centres undefined),132 to 133 °C
23,CC(=O)c1cnc(O)c(Cl)c1,188 to 189 °C
24,Cc1cccc(N2CCN(CCCc3ccc(C4CCC(=O)N4)cc3)CC2)c1 (centres undefined),87 to 89 °C
25,O=C(NN=C1c2cccc(F)c2SCC1c1ccc(F)cc1)Nc1ccc(C(F)(F)F)cc1 (centres undefined),217 to 219 °C

row,Compound,melting point
1,COc1ccc(OCCCc2cn(-c3ccc(C(F)(F)F)cn3)nc2C(C)C)c(CC(=O)O)c1,143 to 144 °C
2,CC(Cl)CCC(=O)Nc1c(C#N)cnn1-c1ccc(Cl)c(Cl)c1Cl (centres undefined),126 to 127 °C
3,Cc1cc(C)c(N2C(=O)C(C)Cc3c(Cl)nc(C)nc32)c(C)c1 (centres undefined),136 to 139 °C
4,NC(=O)N(O)Cc1ccc(Oc2ccc(-n3ccnc3)cc2)s1,141 °C
5,CCOC(=O)C1=C(COCC(C)(O)Cn2cncn2)NC(C)=C(C(=O)OC)C1c1cccc(Cl)c1Cl (centres undefined),149 to 160 °C
6,Nc1ccc(OC2CCN(c3ccncc3)CC2)cc1,209 to 210 °C
7,C[Si](C)(C)c1cccc2cc(C(=O)Nc3ccc(N4CC(O)C4)nc3)n(Cc3cccc(F)c3)c12,215 to 217 °C
8,COC(=O)c1ccc2c(=O)n(Cc3ccc(OC)cc3)c(=O)[nH]c2c1,254 to 256 °C
9,CC(=O)C(=NNc1ccccc1)C(=O)N(C(C)C)C(C)C,143 to 145 °C
10,O=C(O)c1cn(CCF)c2nc(N3CCNCC3)c(F)cc2c1=O,223 to 225 °C
11,COc1ccc(-c2ccc(C#N)cc2)cc1C(C)=O,102 °C
12,COC(=O)c1cc(-c2nnn(Cc3ccc(OC)cc3)n2)ccc1OC,110 to 111 °C
13,Cc1cc(COC2CCCO2)nc(N)n1 (centres undefined),109 to 110 °C
14,N#Cc1cccc2c1CC(=NN)c1cccc(F)c1S2,203 to 206 °C
15,CC(C)(C)c1cc(N2Cc3ccccc3C2=O)cc(C(C)(C)C)c1O,205 to 207 °C
16,O=C(Nc1ccc(-n2nc(C(F)(F)F)cc2C(F)(F)F)cc1)c1nc(Cl)ccc1Cl,118 to 119 °C
17,CCCCCCCCC(CCC(=O)O)C(C)=O (centres undefined),36 to 38 °C
18,CC(C)(C)CNc1nc(C(=O)C(=O)c2ccccc2)ccc1[N+](=O)[O-],88 to 90 °C
19,CCOc1nn(-c2ccc(C(F)(F)F)cn2)cc1CCCOc1c(CCC(=O)O)cccc1OC,87 to 88 °C
20,CCCNC(=O)CCn1c(C)nc2c(N)nc3ccccc3c21,188 to 189 °C
21,CCCCCCCCCCCCCCCCCCOc1ccc2ccccc2c1O,58 to 59 °C
22,CCn1c(-c2ccc(N)cc2)n[nH]c1=S,240 to 250 °C
23,CCOC(=O)c1ccc(NCc2ccc(OC)cc2)cc1,128 to 130 °C
24,O=C(c1ccccc1)c1ccc(NC(=O)C(O)(C(F)F)C(F)F)cc1,139 to 142 °C
25,CC1c2ccccc2Nc2nccn21 (centres undefined),171 to 172 °C

row,Compound,melting point
1,OCc1nnc2n1-c1ccc(Cl)cc1C(c1ccccc1Cl)=NC2,236 to 239 °C
2,CC(C)c1n[nH]c2c(O)ncnc12,302 to 304 °C
3,CCn1c(C(=O)OC)c(-c2ccc(OC)c(OC)c2)c2cc(OC)c(OC)cc21,191 to 192 °C
4,CNC(=O)C1CCCc2c1c1cc(OC)ccc1n2Cc1ccccc1 (centres undefined),259 to 261 °C
5,CCOC(=O)c1c(-c2ccccc2)c(-c2ccc(F)cc2)cn1C(C)C,104 to 105 °C
6,CCC1(CC)NC(=O)C(CC)(CC)N1,68 to 70 °C
7,CCOC(=O)N1CCN(C2=Nc3ccc(Br)c4cccc2c34)CC1,170 to 174 °C
8,O=C1CCCc2nc3sccc3c(NCc3ccccc3)c21,159 to 160 °C
9,O=C(O)c1cccc(Oc2ccc(C(=O)c3ccc(F)cc3)cc2)c1,158 to 160 °C
10,O=[N+]([O-])c1ccc(Oc2ccc(C(F)(F)F)cc2Cl)cc1[N+](=O)[O-],80 to 81 °C
11,OCc1nn(-c2ccccc2)c2c1CCCC2,75 to 77 °C
12,CC(C)N1Cc2c(Cl)nc(Cl)nc2C1=O,122 to 123 °C
13,Nc1nccc(Oc2ccc3c(C(=O)Nc4ccc(F)c(C(F)(F)F)c4)nsc3c2)n1,237 to 239 °C
14,Cc1nc(N2CCN(Cc3ccc(OC(F)(F)F)cc3)C2=O)sc1C(=O)NCCc1ccccc1,184 to 185 °C
15,CC(C)(C)c1nc(N)n(-c2c(Cl)cc(C(F)(F)F)cc2Cl)n1,208 to 212 °C
16,CC(C)(C)OC(=O)[C@@H]1CCC(=O)N1C(=O)OC(C)(C)C,53 to 55 °C
17,CN(C)CCOCC1=Nc2cc(Cl)ccc2S(=O)(=O)N1,219 to 221 °C
18,Cc1oc(-c2ccccc2)nc1CCOc1ccc(/C=C/C#N)cn1,116 to 117 °C
19,COC(=O)c1c(Cl)c(-c2cccc(C(F)(F)F)c2)nn1C,97 to 98 °C
20,"CC(=O)NCC1CC(c2ccc(-n3cccc3)c(F)c2)=NO1 (single isomer, unassigned; (-))",176 to 177 °C
21,OCCNc1nc(NCc2ccccc2)c2ncc(Nc3ncncn3)cc2n1,202 to 203 °C
22,C=CC(=O)Cc1ccc(-c2ccc(CC(=O)C=C)cc2)cc1,61 to 62 °C
23,CCN(CC)c1ccc(C(=O)C(C)(C)N2CCOCC2)cc1,86 to 89 °C
24,Cn1ncnc1COc1nn2c(-c3ccccc3F)nncc2c1-c1ccco1,188 to 190 °C
